Measured values published in ChEMBL document CHEMBL1201862, “PubChem BioAssay data set” (2004).
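Protocol summary: plate cells (96-well), add compound at 5 concentrations, incubate 48 h, interpolate endpoints linearly. Abbreviation: GI50, concentration required for 50% inhibition of growth.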 Calls of active or inactive are those of the source. Rule as the data show it: active = GI50 up to about 1.1 µM and inactive = higher. Starred links: 1 amine or outer side, 2 acyl side, 3 side chain; linkers in the order of their positions; H or OH if unused. Positions of bridges follow the written chain, without caps; N, C: chain ends. Where a SMILES comes first, the peptide text is derived from it. Non-standard residues stand in square brackets, D forms with d. Residues, ends and D or L forms follow the SMILES beside them. Bridges are numbered along the chain shown (N, C = ends). Chains are numbered I, II in the order given. The star is where a group is joined. ξ: configuration not given here. X42 = N=C(N)NCCC[C@H](NC(=N)CCCCCCC(=N)N[C@@H](CCCNC(=N)N)C(=O)[*:2])C(=O)[*:1]; Oic(3aξ,7aξ) = O=C(O)[C@@H]1CC2CCCCC2N1; Igl = N[C@H](C(=O)O)C1Cc2ccccc2C1; Hyp = O=C(O)[C@@H]1C[C@@H](O)CN1; Cbz = O=C(OCc1ccccc1)*

Experiments:
Test in all cases: growth of human tumour cells (NCI), 48 h
[1] = system: NCI-H23
[2] = system: SK-OV-3
[3] = system: M14
[4] = system: U-251
[5] = system: SK-MEL-28
[6] = system: Malme-3M
[7] = system: SF-295
[8] = system: SK-MEL-5
[9] = system: IGROV-1
[10] = system: TK-10
[11] = system: RXF 393
[12] = system: EKVX
[13] = system: SW-620
[14] = system: SF-539
[15] = system: BT-549
[16] = system: UACC-62
[17] = system: RPMI-8226
[18] = system: HT-29
[19] = system: LOX IMVI
[20] = system: T47D

Row | Compound | GI50 [1] | GI50 [2] | GI50 [3] | GI50 [4] | GI50 [5] | GI50 [6] | GI50 [7] | GI50 [8] | GI50 [9] | GI50 [10] | GI50 [11] | GI50 [12] | GI50 [13] | GI50 [14] | GI50 [15] | GI50 [16] | GI50 [17] | GI50 [18] | GI50 [19] | GI50 [20]
1 | CCCC(=O)NC1CCc2cc(OC)c(OC)c(OC)c2-c2ccc(OC)c(=O)cc21 (configuration not stated) | 0.000715 µM (active) | 0.00454 µM (active) | 0.000817 µM (active) | 0.000344 µM (active) | 0.01 µM (active) | 0.000764 µM (active) | 0.000512 µM (active) | 0.000356 µM (active) | 0.000828 µM (active) | 78.5 µM (inactive) | 0.01 µM (active) | 0.000577 µM (active) | 0.000481 µM (active) | 0.000296 µM (active) | 0.01 µM (active) | 0.000303 µM (active) | 0.01 µM (active) | 0.00036 µM (active) | 0.00045 µM (active) | –
2 | O=C(CC(O)(C(F)(F)F)C(F)(F)F)C(CCCl)C(O)(C(F)(F)F)C(F)(F)F (configuration not stated) | 33.2 µM (inactive) | 45.6 µM (inactive) | 40.6 µM (inactive) | 35.6 µM (inactive) | 57.3 µM (inactive) | 24.7 µM (inactive) | 33.5 µM (inactive) | 23.2 µM (inactive) | 52.5 µM (inactive) | 55.7 µM (inactive) | 21.1 µM (inactive) | 34.7 µM (inactive) | 51.6 µM (inactive) | 54.8 µM (inactive) | – | 53.2 µM (inactive) | 16.7 µM (inactive) | 23.8 µM (inactive) | 55.7 µM (inactive) | 26 µM (inactive)
3 | Cc1c(OCc2cccc3ccccc23)ccc2c(=O)cc(SCCN3CCOCC3)oc12 | > 100 µM (inactive) | – | > 100 µM (inactive) | > 100 µM (inactive) | > 100 µM (inactive) | – | > 100 µM (inactive) | > 100 µM (inactive) | > 100 µM (inactive) | > 100 µM (inactive) | > 100 µM (inactive) | > 100 µM (inactive) | > 100 µM (inactive) | > 100 µM (inactive) | > 100 µM (inactive) | > 100 µM (inactive) | – | > 100 µM (inactive) | > 100 µM (inactive) | > 100 µM (inactive)
4 | Cc1cn2c(C)csc2c1P(=O)(OC(C)C)OC(C)C | > 100 µM (inactive) | > 100 µM (inactive) | > 100 µM (inactive) | > 100 µM (inactive) | > 100 µM (inactive) | > 100 µM (inactive) | > 100 µM (inactive) | > 100 µM (inactive) | > 100 µM (inactive) | > 100 µM (inactive) | > 100 µM (inactive) | > 100 µM (inactive) | > 100 µM (inactive) | > 100 µM (inactive) | > 100 µM (inactive) | > 100 µM (inactive) | > 100 µM (inactive) | > 100 µM (inactive) | > 100 µM (inactive) | –
5 | CCCCCCc1cc2cc(C(=O)Nc3ccc(F)cc3)c(=N)oc2cc1O | 1.78 µM (inactive) | 2.58 µM (inactive) | 2.92 µM (inactive) | 2.45 µM (inactive) | 3.27 µM (inactive) | 2.32 µM (inactive) | 3.96 µM (inactive) | 1.4 µM (inactive) | 1.49 µM (inactive) | – | – | 3.27 µM (inactive) | 3.25 µM (inactive) | 2.17 µM (inactive) | 2.66 µM (inactive) | 1.92 µM (inactive) | 1.17 µM (inactive) | 28 µM (inactive) | 2.08 µM (inactive) | –
6 | CCCCC1c2c([nH]c3ccccc23)C2C(=O)N(c3ccc(OC)cc3)C(=O)C2C1CCC (configuration not stated) | 3.89 µM (inactive) | > 10 µM (inactive) | 3.06 µM (inactive) | 8.71 µM (inactive) | 5.4 µM (inactive) | 4.44 µM (inactive) | > 10 µM (inactive) | 5.38 µM (inactive) | 4.56 µM (inactive) | 4.37 µM (inactive) | 3.39 µM (inactive) | 3.56 µM (inactive) | 3.95 µM (inactive) | 2.24 µM (inactive) | – | 2.29 µM (inactive) | 4.61 µM (inactive) | 3.13 µM (inactive) | > 10 µM (inactive) | > 10 µM (inactive)
7 | Cc1cc(C)c(C2CC(O)C(CO)O2)cc1C (configuration not stated) | > 100 µM (inactive) | > 100 µM (inactive) | > 100 µM (inactive) | > 100 µM (inactive) | > 100 µM (inactive) | > 100 µM (inactive) | > 100 µM (inactive) | > 100 µM (inactive) | > 100 µM (inactive) | > 100 µM (inactive) | – | > 100 µM (inactive) | > 100 µM (inactive) | > 100 µM (inactive) | > 100 µM (inactive) | > 100 µM (inactive) | > 100 µM (inactive) | > 100 µM (inactive) | > 100 µM (inactive) | –
8 | S=C(Nc1ccccc1)c1ccc(CN2CCCCC2)s1 | 19.4 µM (inactive) | 19.5 µM (inactive) | 16 µM (inactive) | 19 µM (inactive) | 16.2 µM (inactive) | 21 µM (inactive) | 18.5 µM (inactive) | 16.3 µM (inactive) | 24 µM (inactive) | – | – | 41.8 µM (inactive) | 16.4 µM (inactive) | 37.8 µM (inactive) | 21.4 µM (inactive) | 18.7 µM (inactive) | 21.7 µM (inactive) | 11.3 µM (inactive) | 17.7 µM (inactive) | 26.4 µM (inactive)
9 | O=[N+]([O-])/C(C(Cl)=C(Cl)Cl)=C1\Nc2ccc([N+](=O)[O-])cc2N1 | > 100 µM (inactive) | > 100 µM (inactive) | > 100 µM (inactive) | 60 µM (inactive) | > 100 µM (inactive) | 63.5 µM (inactive) | > 100 µM (inactive) | > 100 µM (inactive) | – | > 100 µM (inactive) | – | > 100 µM (inactive) | – | – | 62.2 µM (inactive) | > 100 µM (inactive) | 55 µM (inactive) | – | – | > 100 µM (inactive)
10 | CCNc1ncnc2nn[nH]c12 | > 100 µM (inactive) | > 100 µM (inactive) | > 100 µM (inactive) | > 100 µM (inactive) | > 100 µM (inactive) | > 100 µM (inactive) | > 100 µM (inactive) | > 100 µM (inactive) | > 100 µM (inactive) | > 100 µM (inactive) | > 100 µM (inactive) | > 100 µM (inactive) | > 100 µM (inactive) | > 100 µM (inactive) | – | > 100 µM (inactive) | > 100 µM (inactive) | > 100 µM (inactive) | > 100 µM (inactive) | > 100 µM (inactive)
11 | Nn1c(CNc2ccc(-c3nnc(Nc4ccc(Cl)cc4)n3N)cc2)nnc1Nc1ccc(Cl)cc1 | > 100 µM (inactive) | > 100 µM (inactive) | 51.6 µM (inactive) | > 100 µM (inactive) | > 100 µM (inactive) | > 100 µM (inactive) | > 100 µM (inactive) | > 100 µM (inactive) | > 100 µM (inactive) | > 100 µM (inactive) | > 100 µM (inactive) | > 100 µM (inactive) | > 100 µM (inactive) | – | > 100 µM (inactive) | 50.9 µM (inactive) | 61.9 µM (inactive) | 44.2 µM (inactive) | – | –
12 | COc1ccc(-c2csc3c2-n2cccc2C3=O)cc1 | 0.438 µM (active) | 0.216 µM (active) | 0.0346 µM (active) | 0.0326 µM (active) | 0.406 µM (active) | 28.8 µM (inactive) | 0.0395 µM (active) | 0.0581 µM (active) | 0.258 µM (active) | – | 0.07 µM (active) | 0.767 µM (active) | < 0.0232 µM (active) | 0.0304 µM (active) | 8.93 µM (inactive) | 0.0269 µM (active) | 0.0425 µM (active) | 0.028 µM (active) | 0.0458 µM (active) | –
13 | COC(=O)C1CCCCNC(=O)CCC(NC(=O)OCc2ccccc2)C(=O)N1 (stereo not drawn) (Cbz-Glu-Lys-OMe; lactam 1-2; configuration not given here) | > 100 µM (inactive) | 56.1 µM (inactive) | > 100 µM (inactive) | 39.3 µM (inactive) | > 100 µM (inactive) | > 100 µM (inactive) | 50.1 µM (inactive) | > 100 µM (inactive) | > 100 µM (inactive) | > 100 µM (inactive) | 25.5 µM (inactive) | > 100 µM (inactive) | > 100 µM (inactive) | > 100 µM (inactive) | – | > 100 µM (inactive) | > 100 µM (inactive) | > 100 µM (inactive) | > 100 µM (inactive) | > 100 µM (inactive)
14 | N=C(N)NCCC[C@H](NC(=O)[C@@H]1CC2CCCCC2N1C(=O)[C@@H](NC(=O)[C@H](CO)NC(=O)[C@@H](NC(=O)CNC(=O)[C@@H]1CCCN1C(=O)[C@H](CCCNC(=N)N)NC(=O)[C@H](CCCNC(=N)N)NC(=N)CCCCCCC(=N)N[C@@H](CCCNC(=N)N)C(=O)N[C@@H](CCCNC(=N)N)C(=O)N1CCC[C@H]1C(=O)N1C[C@H](O)C[C@H]1C(=O)NCC(=O)N[C@H](C(=O)N[C@@H](CO)C(=O)N[C@H](C(=O)N1C2CCCCC2C[C@H]1C(=O)N[C@@H](CCCNC(=N)N)C(=O)O)C1Cc2ccccc2C1)C1Cc2ccccc2C1)C1Cc2ccccc2C1)C1Cc2ccccc2C1)C(=O)O (some centres not stated) (I: RP[Hyp]G[Igl]S[Igl][Oic(3aξ,7aξ)]R-OH / II: RPG[Igl]S[Igl][Oic(3aξ,7aξ)]R-OH; linker I:N-II:N via X42) | 1.92 µM (inactive) | 1.83 µM (inactive) | 3.18 µM (inactive) | 2.48 µM (inactive) | 2.01 µM (inactive) | 2.31 µM (inactive) | 1.86 µM (inactive) | 1.73 µM (inactive) | 2.44 µM (inactive) | 2.76 µM (inactive) | 1.34 µM (inactive) | 2.03 µM (inactive) | 2.28 µM (inactive) | 2.36 µM (inactive) | – | 1.83 µM (inactive) | 2.31 µM (inactive) | 0.138 µM (active) | 2.24 µM (inactive) | 2.19 µM (inactive)
